The values below are quoted from earlier work in patent publication US9012510B2, “Oleoylethanolamide based functional mesophases” (Nestec S.A., priority 2008, dated 2015).

For this series the following is noted: Thabuis et al., Lipid Technology 2007, 19, 225.

Consider `CCCCCCCC/C=C\CCCCCCCC(=O)NCCO` [OEA, oleoylethanolamide], for which the “effect of administration on food intake and gain in body mass” value is “potent and persistent decrease in food intake and gain in body mass”.
